ChEMBL document CHEMBL4819081 (Eur J Med Chem, 2021)
pIC50: −log10 of the molar value.

What was measured:
MDA-MB-231 [1] = assay: Induction of apoptosis in human MDA-MB-231 cells assessed as early apoptotic cells at 10 uM after 24 hrs by Annexin-V/PI-staining based flow cytometry (reference value: 2.67%); format: functional
MDA-MB-231 [2] = assay: Induction of cell cycle arrest in human MDA-MB-231 cells assessed as accumulation at G1 phase at 0.375 uM after 12 hrs by propidium iodide staining-based flow cytometric analysis (reference value: 53.11%); format: functional
MDA-MB-231 [3] = assay: Induction of apoptosis in human MDA-MB-231 cells assessed as late apoptotic cells at 0.625 uM after 24 hrs by Annexin-V/PI-staining based flow cytometry (reference value: 3.02%); format: functional
MDA-MB-231 [4] = assay: Induction of cell cycle arrest in human MDA-MB-231 cells assessed as accumulation at G1 phase at 0.1875 uM after 12 hrs by propidium iodide staining-based flow cytometric analysis (reference value: 53.11%); format: functional
MDA-MB-231 [5] = assay: Antiproliferative activity against human MDA-MB-231 cells assessed as reduction in cell viability after 72 hrs by MTT assay; format: functional, cell-based; conditions: MDA-MB-231, 72 h
MDA-MB-453 [6] = assay: Antiproliferative activity against human MDA-MB-453 cells assessed as reduction in cell viability after 72 hrs by MTT assay; format: functional, cell-based; conditions: MDA-MB-453, 72 h
MDA-MB-231 [7] = assay: Induction of apoptosis in human MDA-MB-231 cells assessed as early apoptotic cells at 1.25 uM after 24 hrs by Annexin-V/PI-staining based flow cytometry (reference value: 2.67%); format: functional
[8] = molecular target: T1, Cyclin-dependent kinase 4/cyclin D1 (Homo sapiens) (UniProt P11802+P24385); assay: Inhibition of CDK4/Cyclin D1 (unknown origin) at 20 nM using ATP by mobility shift assay; format: protein-complex assay
NCI-H1299 [9] = assay: Antiproliferative activity against human NCI-H1299 cells assessed as reduction in cell viability after 72 hrs by MTT assay; format: functional, cell-based; conditions: NCI-H1299, 72 h
MCF7 [10] = assay: Antiproliferative activity against human MCF7 cells assessed as reduction in cell viability after 72 hrs by MTT assay; format: functional, cell-based; conditions: MCF7, 72 h
MDA-MB-231 [11] = assay: Induction of cell cycle arrest in human MDA-MB-231 cells assessed as accumulation at S phase at 0.375 uM after 12 hrs by propidium iodide staining-based flow cytometric analysis (reference value: 23.71%); format: functional
[12] = molecular target: Cyclin-dependent kinase 1/cyclin B1 (Homo sapiens, UniProt P06493); assay: Inhibition of CDK1/cyclin B (unknown origin); format: protein-complex assay
Cyclin-dependent kinase 1/cyclin B1, sequence (P06493 whole entry): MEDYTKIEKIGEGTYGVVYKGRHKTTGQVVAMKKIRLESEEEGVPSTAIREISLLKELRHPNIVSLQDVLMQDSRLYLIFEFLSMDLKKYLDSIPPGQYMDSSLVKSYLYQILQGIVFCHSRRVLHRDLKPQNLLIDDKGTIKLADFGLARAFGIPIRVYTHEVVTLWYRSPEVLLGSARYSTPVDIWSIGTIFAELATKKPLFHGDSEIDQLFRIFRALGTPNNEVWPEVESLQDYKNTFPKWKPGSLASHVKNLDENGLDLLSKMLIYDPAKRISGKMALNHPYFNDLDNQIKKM
Cyclin-dependent kinase 1/cyclin B1, sequence (P14635 whole entry, further chain): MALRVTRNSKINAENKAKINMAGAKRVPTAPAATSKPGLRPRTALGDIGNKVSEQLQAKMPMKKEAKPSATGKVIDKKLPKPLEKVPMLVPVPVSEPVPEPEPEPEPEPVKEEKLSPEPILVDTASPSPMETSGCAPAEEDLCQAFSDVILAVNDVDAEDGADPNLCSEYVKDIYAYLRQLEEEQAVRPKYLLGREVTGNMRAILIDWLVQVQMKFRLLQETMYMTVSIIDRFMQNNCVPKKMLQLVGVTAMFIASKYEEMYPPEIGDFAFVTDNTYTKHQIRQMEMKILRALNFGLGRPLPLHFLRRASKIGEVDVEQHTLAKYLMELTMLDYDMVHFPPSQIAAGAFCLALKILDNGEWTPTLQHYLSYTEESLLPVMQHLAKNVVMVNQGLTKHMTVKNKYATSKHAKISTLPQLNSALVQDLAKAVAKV

MDA-MB-231 [13] = assay: Induction of cell cycle arrest in human MDA-MB-231 cells assessed as accumulation at G2 phase at 1.5 uM after 12 hrs by propidium iodide staining-based flow cytometric analysis (reference value: 21.11%); format: functional
NCI-H1299 [14] = assay: Potency index, ratio of IC50 for Palbociclib to IC50 for test compound for antiproliferative activity against human H1299 cells assessed as reduction in cell viability after 72 hrs by MTT assay; format: functional
CDK6/cyclin D3 = CDK6/cyclin D3 (Homo sapiens, UniProt Q00534); assay: Inhibition of CDK6/Cyclin D3 (unknown origin) by mobility shift assay; format: protein-complex assay
CDK6/cyclin D3, sequence (P30281 whole entry): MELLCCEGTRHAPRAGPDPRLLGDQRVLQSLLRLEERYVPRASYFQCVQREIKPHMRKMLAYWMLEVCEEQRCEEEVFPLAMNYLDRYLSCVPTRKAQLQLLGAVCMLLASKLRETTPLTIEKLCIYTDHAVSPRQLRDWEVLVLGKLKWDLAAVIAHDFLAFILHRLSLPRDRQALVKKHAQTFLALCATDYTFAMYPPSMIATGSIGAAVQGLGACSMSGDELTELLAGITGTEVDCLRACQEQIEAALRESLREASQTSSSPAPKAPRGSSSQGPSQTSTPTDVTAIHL
CDK6/cyclin D3, sequence (Q00534 whole entry): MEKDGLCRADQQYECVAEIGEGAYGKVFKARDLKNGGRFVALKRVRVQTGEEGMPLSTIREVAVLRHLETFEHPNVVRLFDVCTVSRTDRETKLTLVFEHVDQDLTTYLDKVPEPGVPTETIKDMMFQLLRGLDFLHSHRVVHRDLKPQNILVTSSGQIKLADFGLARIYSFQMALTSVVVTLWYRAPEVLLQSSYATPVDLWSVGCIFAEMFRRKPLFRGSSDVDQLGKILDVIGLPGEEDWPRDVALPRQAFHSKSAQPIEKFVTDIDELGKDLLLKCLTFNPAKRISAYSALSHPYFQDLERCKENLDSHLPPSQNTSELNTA

MDA-MB-231 [15] = assay: Induction of apoptosis in human MDA-MB-231 cells assessed as late apoptotic cells at 5 uM after 24 hrs by Annexin-V/PI-staining based flow cytometry (reference value: 3.02%); format: functional
[16] = molecular target: T1, Cyclin-dependent kinase 4/cyclin D1 (Homo sapiens); assay: Inhibition of CDK4/Cyclin D1 (unknown origin) at 200 nM using ATP by mobility shift assay; format: protein-complex assay
MDA-MB-231 [17] = assay: Antitumor activity against human MDA-MB-231 cells xenografted in po dosed BALB/c mouse assessed as reduction in tumor weight measured every 3 days for 21 days; format: functional, organism-based; conditions: dose 40-80 mg/kg, time […]
MCF7 [18] = assay: Potency index, ratio of IC50 for Palbociclib to IC50 for test compound for antiproliferative activity against human MCF7 cells assessed as reduction in cell viability after 72 hrs by MTT assay; format: functional
MDA-MB-231 [19] = assay: Induction of cell cycle arrest in human MDA-MB-231 cells assessed as accumulation at G1 phase at 1.5 uM after 12 hrs by propidium iodide staining-based flow cytometric analysis (reference value: 53.11%); format: functional
[20] = molecular target: Cyclin-dependent kinase 4/6 (Homo sapiens) (UniProt P11802+Q00534); assay: Inhibition of CDK4/6 in human MDA-MB-231 cells assessed as reduction in Rb phosphorylation at Ser780 after 24 hrs by western blot analysis; format: cell-based; conditions: dose 0.5-4 µM
Cyclin-dependent kinase 4/6 (Homo sapiens), sequence (P11802 whole entry, looked up): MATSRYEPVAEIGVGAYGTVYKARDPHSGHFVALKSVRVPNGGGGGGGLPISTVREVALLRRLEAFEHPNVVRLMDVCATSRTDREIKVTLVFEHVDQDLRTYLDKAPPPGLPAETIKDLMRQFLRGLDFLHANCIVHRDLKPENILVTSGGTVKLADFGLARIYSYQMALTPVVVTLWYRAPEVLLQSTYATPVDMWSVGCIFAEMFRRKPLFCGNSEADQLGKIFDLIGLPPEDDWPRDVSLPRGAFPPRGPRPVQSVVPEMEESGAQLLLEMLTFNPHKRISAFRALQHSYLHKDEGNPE
Cyclin-dependent kinase 4/6 (Homo sapiens), sequence (Q00534 whole entry, looked up): as the sequence (Q00534 whole entry) above

MDA-MB-231 [21] = assay: Induction of apoptosis in human MDA-MB-231 cells assessed as late apoptotic cells at 10 uM after 24 hrs by Annexin-V/PI-staining based flow cytometry (reference value: 3.02%); format: functional
MDA-MB-231 [22] = assay: Induction of cell cycle arrest in human MDA-MB-231 cells assessed as accumulation at S phase at 1.5 uM after 12 hrs by propidium iodide staining-based flow cytometric analysis (reference value: 23.71%); format: functional
MDA-MB-231 [23] = assay: Antitumor activity against human MDA-MB-231 cells xenografted in BALB/c mouse assessed as tumor growth inhibition at 80 mg/kg, po measured every 3 days for 21 days; format: functional; conditions: MDA-MB-231, po, 504 h, time 21 day, read-out: TGI
[24] = Toxicity in BALB/c mouse xenografted with human MDA-MB-231 cells assessed as body weight change at 40 to 80 mg/kg, po measured every 3 days for 21 days; format: organism-based; conditions: in vivo, 72 h, dose 40-80 mg/kg, time 3 day
MDA-MB-231 [25] = assay: Induction of apoptosis in human MDA-MB-231 cells assessed as early apoptotic cells at 0.625 uM after 24 hrs by Annexin-V/PI-staining based flow cytometry (reference value: 2.67%); format: functional
[26] = molecular target: Cyclin-dependent kinase 9 (Homo sapiens, UniProt P50750); assay: Inhibition of CDK9 (unknown origin)
Cyclin-dependent kinase 9, sequence (P50750 whole entry): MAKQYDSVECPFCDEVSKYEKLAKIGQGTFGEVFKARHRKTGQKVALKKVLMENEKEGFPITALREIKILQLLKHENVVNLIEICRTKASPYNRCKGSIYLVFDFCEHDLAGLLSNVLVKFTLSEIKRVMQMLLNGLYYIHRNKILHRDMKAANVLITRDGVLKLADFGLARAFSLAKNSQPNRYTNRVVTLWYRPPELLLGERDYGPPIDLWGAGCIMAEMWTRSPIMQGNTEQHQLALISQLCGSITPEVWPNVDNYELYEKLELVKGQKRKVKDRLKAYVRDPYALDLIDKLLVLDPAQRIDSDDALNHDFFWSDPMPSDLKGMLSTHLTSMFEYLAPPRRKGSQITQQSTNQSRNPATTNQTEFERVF

MDA-MB-453 [27] = assay: Potency index, ratio of IC50 for Palbociclib to IC50 for test compound for antiproliferative activity against human MDA-MB-453 cells assessed as reduction in cell viability after 72 hrs by MTT assay; format: functional
MDA-MB-231 [28] = assay: Induction of cell cycle arrest in human MDA-MB-231 cells assessed as accumulation at S phase at 0.75 uM after 12 hrs by propidium iodide staining-based flow cytometric analysis (reference value: 23.71%); format: functional
MDA-MB-231 [29] = assay: Antitumor activity against human MDA-MB-231 cells xenografted in po dosed BALB/c mouse assessed as reduction in tumor volume measured every 3 days for 21 days; format: functional, organism-based; conditions: dose 40-80 mg/kg, time 21.0 day
MDA-MB-231 [30] = assay: Induction of apoptosis in human MDA-MB-231 cells assessed as late apoptotic cells at 1.25 uM after 24 hrs by Annexin-V/PI-staining based flow cytometry (reference value: 3.02%); format: functional
CDK4/Cyclin D3 = CDK4/Cyclin D3 (Homo sapiens, UniProt P11802); assay: Inhibition of CDK4/Cyclin D3 (unknown origin) by mobility shift assay; format: protein-complex assay
CDK4/Cyclin D3, sequence (P11802 whole entry): as the sequence (P11802 whole entry, looked up) above
CDK4/Cyclin D3, sequence (P30281 whole entry, further chain): as the sequence (P30281 whole entry) above

CDK7/Cyclin H/MNAT1 = CDK7/Cyclin H/MNAT1 (Homo sapiens, UniProt P50613); assay: Inhibition of CDK7/cyclin H/MAT1 (unknown origin); format: protein-complex assay
CDK7/Cyclin H/MNAT1, sequence (P51946 whole entry): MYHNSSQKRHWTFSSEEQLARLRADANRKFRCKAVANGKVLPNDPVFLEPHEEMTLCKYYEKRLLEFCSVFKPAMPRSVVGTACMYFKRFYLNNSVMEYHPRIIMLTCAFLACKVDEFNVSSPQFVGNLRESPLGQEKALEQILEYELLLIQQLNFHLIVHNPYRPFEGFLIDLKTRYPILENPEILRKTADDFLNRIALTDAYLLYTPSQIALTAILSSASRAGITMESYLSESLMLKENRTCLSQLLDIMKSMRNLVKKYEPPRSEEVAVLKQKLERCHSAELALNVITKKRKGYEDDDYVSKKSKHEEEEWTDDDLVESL
CDK7/Cyclin H/MNAT1, sequence (P50613 whole entry): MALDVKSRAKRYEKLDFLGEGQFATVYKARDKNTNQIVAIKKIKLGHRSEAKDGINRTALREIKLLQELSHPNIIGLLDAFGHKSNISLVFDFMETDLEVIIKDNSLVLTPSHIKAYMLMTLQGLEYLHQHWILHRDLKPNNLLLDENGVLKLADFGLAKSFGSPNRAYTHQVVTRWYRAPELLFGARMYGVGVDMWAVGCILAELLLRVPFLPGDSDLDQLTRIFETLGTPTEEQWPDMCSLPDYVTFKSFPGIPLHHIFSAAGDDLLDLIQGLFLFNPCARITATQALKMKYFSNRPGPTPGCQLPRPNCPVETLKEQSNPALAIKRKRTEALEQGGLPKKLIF
CDK7/Cyclin H/MNAT1, sequence (P51948 whole entry, further chain): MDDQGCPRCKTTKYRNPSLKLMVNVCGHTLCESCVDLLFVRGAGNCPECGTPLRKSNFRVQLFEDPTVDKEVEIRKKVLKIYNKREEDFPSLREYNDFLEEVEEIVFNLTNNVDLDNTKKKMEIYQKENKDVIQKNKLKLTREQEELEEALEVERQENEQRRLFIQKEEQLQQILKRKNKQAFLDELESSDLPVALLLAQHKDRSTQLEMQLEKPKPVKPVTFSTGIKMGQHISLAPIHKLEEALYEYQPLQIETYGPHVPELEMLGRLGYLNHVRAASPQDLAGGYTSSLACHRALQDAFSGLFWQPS

MDA-MB-231 [31] = assay: Induction of cell cycle arrest in human MDA-MB-231 cells assessed as accumulation at G1 phase at 0.75 uM after 12 hrs by propidium iodide staining-based flow cytometric analysis (reference value: 53.11%); format: functional

pIC50 (MDA-MB-231 [5]): 5.92 | pIC50 (MDA-MB-453 [6]): 5.76 | inhibition [8]: 61.7% | pIC50 (NCI-H1299 [9]): 5.60 | pIC50 (MCF7 [10]): 6.42 | pIC50 [12]: < 5.00 | pIC50 (CDK6/cyclin D3): 7.85 | inhibition [16]: 93.8% | inhibition [20]: Dose-Dependent Effect | pIC50 [26]: 5.74 | pIC50 (CDK4/Cyclin D3): 8.21 | pIC50 (CDK7/Cyclin H/MNAT1): < 5.48
Compound: CC(=O)c1c(C)c2cnc(Nc3ccc(N4CCN(C(=O)CCl)CC4)cn3)nc2n(C2CCCC2)c1=O
Activity (MDA-MB-231 [1]): 68.48% | Activity (MDA-MB-231 [2]): 68.34% | Activity (MDA-MB-231 [3]): 3.82% | Activity (MDA-MB-231 [4]): 68.04% | Activity (MDA-MB-231 [7]): 7.72% | Activity (MDA-MB-231 [11]): 15.36% | Activity (MDA-MB-231 [13]): 19.72% | Ratio IC50 (NCI-H1299 [14]): 4 | Activity (MDA-MB-231 [15]): 27.32% | inhibition (MDA-MB-231 [17]): Dose-Dependent Effect | Ratio IC50 (MCF7 [18]): 40 | Activity (MDA-MB-231 [19]): 71.12% | Activity (MDA-MB-231 [21]): 14.54% | Activity (MDA-MB-231 [22]): 7.55% | inhibition in vivo at 80 mg/kg (MDA-MB-231 [23]): 105% | Activity [24]: Non-Toxic | Activity (MDA-MB-231 [25]): 4.24% | Ratio IC50 (MDA-MB-453 [27]): 40 | Activity (MDA-MB-231 [28]): 11.05% | inhibition (MDA-MB-231 [29]): Dose-Dependent Effect | Activity (MDA-MB-231 [30]): 9.72% | Activity (MDA-MB-231 [31]): 71%
